{"source": "paper PMC7926471", "about": "(Viruses, 2021)", "key": {"[1]": {"tested_on": "HCoV-229E, SARS-CoV and MERS-CoV", "conditions": "cited from earlier work"}, "HCoV-229E [2]": {"tested_on": "HCoV-229E", "assay": "Viral replication inhibition assay: HCoV-229E in MRC5 cells, PFU assay", "type": "cell-based, Human Coronavirus 229E"}, "MERS-CoV": {"tested_on": "MERS-CoV", "conditions": "in vitro; cited from earlier work"}, "in vitro": {"assay": "in vitro", "conditions": "human"}, "MRC5 cells": {"tested_on": "MRC5 cells", "assay": "Cytotoxicity in MRC5 cells, MTT assay", "conditions": "drugs tested against HCoV-229E"}, "[3]": {"assay": "Cytotoxicity in MRC5 cells, MTT assay", "conditions": "human"}, "SARS-CoV-2 [4]": {"tested_on": "SARS-CoV-2", "conditions": "especially in primary human bronchial epithelium cells; cited from earlier work"}, "[5]": {"assay": "Cytotoxicity in Vero E6 cells (WST-1 assay among others)", "type": "cell-based", "conditions": "African green monkey; Vero E6 cells, 48 h"}, "Vero E6 cells": {"tested_on": "Vero E6 cells", "assay": "Cytotoxicity in Vero E6 cells (WST-1 assay among others)", "type": "cell-based"}, "SARS-CoV-2 [6]": {"tested_on": "SARS-CoV-2", "conditions": "cited from earlier work"}, "lung cancer": {"tested_on": "lung cancer", "conditions": "nasal administration; cited from earlier work"}, "[7]": {"conditions": "single 500 mg oral dose; cited from earlier work"}, "[8]": {"conditions": "in vivo; cited from earlier work"}, "SARS-CoV-2 [9]": {"tested_on": "SARS-CoV-2", "assay": "SARS-CoV-2 replication in Vero E6 cells, qRT-PCR of envelop (E) gene"}, "SARS-CoV-2 [10]": {"tested_on": "SARS-CoV-2", "conditions": "SARS-CoV-2 infection; cited from earlier work"}, "HCoV-229E [11]": {"tested_on": "HCoV-229E", "design": "method as in earlier work", "conditions": "Huh7 cells; cited from earlier work"}, "[12]": {"conditions": "Human coronavirus 229E, MRC5, 48 h, HCoV-229E in MRC5 cells, high titer MOI = 1, PFU assay after 48 h, read-out: EC50"}, "[13]": {"conditions": "SARS-CoV-2 in Vero E6 cells, qRT-PCR after 48 h"}}, "note": "Entries after “also recorded” stand apart in the source; their conditions may differ. Read-outs that look alike come from different tables or passages of the source.", "data": [{"smiles": "CC(C)c1nc(CN(C)C(=O)N[C@H](C(=O)N[C@@H](Cc2ccccc2)C[C@H](O)[C@H](Cc2ccccc2)NC(=O)OCc2cncs2)C(C)C)cs1", "note": "[ritonavir]", "values": [{"measurement": "anti-CoV activity (in words)", "setting": "[1]", "result": "no selective anti-CoV activity"}]}, {"smiles": "CO[C@H]1C[C@@H]2CC[C@@H](C)[C@@](O)(O2)C(=O)C(=O)N2CCCC[C@H]2C(=O)O[C@H]([C@H](C)C[C@@H]2CC[C@@H](O)[C@H](OC)C2)CC(=O)[C@H](C)/C=C(\\C)[C@@H](O)[C@@H](OC)C(=O)[C@H](C)C[C@H](C)/C=C/C=C/C=C/1C", "note": "[Rapamycin, rapamycin]", "values": [{"measurement": "EC50", "setting": "HCoV-229E [2]; Human coronavirus 229E, MRC5, 48 h", "result": 0.00228, "unit": "mM"}, {"measurement": "reduction of MERS-CoV infection", "setting": "MERS-CoV", "result": "over 60%"}, {"measurement": "CC50 at 48 h", "setting": "in vitro", "result": 2.5, "unit": "µM"}, {"measurement": "cytotoxicity (in words)", "setting": "MRC5 cells", "result": "highly cytotoxic"}]}, {"smiles": "CCCC(CCC)C(=O)O", "note": "[VPA, valproic acid]", "values": [{"measurement": "EC50", "setting": "HCoV-229E [2]; Human coronavirus 229E, MRC5, 48 h, HCoV-229E in MRC5 cells, PFU assay after 48 h, value in mM", "result": 1.34, "unit": "mM"}, {"measurement": "CC50 at 48 h", "setting": "[3]; MRC5 cells", "result": 4000, "unit": "µM"}, {"measurement": "cytotoxicity (in words)", "setting": "MRC5 cells", "result": "highly cytotoxic"}]}, {"smiles": "COc1cc(/C=C/c2ccc(O)cc2)cc(OC)c1", "note": "[pterostilbene]", "values": [{"measurement": "replication of SARS-CoV-2 (in words)", "setting": "SARS-CoV-2 [4]", "result": "inhibited the replication"}]}, {"smiles": "CCN(CC)C(=S)SSC(=S)N(CC)CC", "note": "[Disulfiram, disulfiram]", "values": [{"measurement": "SI (selectivity index, CC50/EC50)", "setting": "HCoV-229E [2]; HCoV-229E, MRC5 cells", "result": 60.56}, {"measurement": "EC50", "setting": "HCoV-229E [2]; [12]", "result": 0.000139, "unit": "mM"}, {"measurement": "CC50 at 48 h", "setting": "[3]; MRC5 cells", "result": 8.4, "unit": "µM"}, {"measurement": "cytotoxicity (in words)", "setting": "MRC5 cells", "result": "highly cytotoxic"}]}, {"smiles": "CN(C)C(=O)C(CCN1CCC(O)(c2ccc(Cl)cc2)CC1)(c1ccccc1)c1ccccc1", "note": "[Loperamide, loperamide]", "values": [{"measurement": "CC50 at 48 h", "setting": "[3]", "result": 10.1, "unit": "µM"}, {"measurement": "cytotoxicity (in words)", "setting": "MRC5 cells", "result": "highly cytotoxic"}]}, {"smiles": "Oc1ccc(/C=C/c2cc(O)cc(O)c2)cc1", "note": "[Resveratrol, resveratrol]", "values": [{"measurement": "reduction of the viral titer", "setting": "HCoV-229E [2]; HCoV-229E", "result": 80, "unit": "%"}, {"measurement": "CC50 at 48 h", "setting": "[5]", "result": 48.2, "unit": "µM"}, {"measurement": "non-cytotoxic doses", "setting": "Vero E6 cells; in vitro, Vero E6", "result": "up to 25 µM"}, {"measurement": "EC50", "setting": "SARS-CoV-2 [6]", "result": 4.48, "unit": "µM"}, {"measurement": "replication of SARS-CoV-2 (in words)", "setting": "SARS-CoV-2 [4]", "result": "inhibited the replication"}, {"measurement": "reduction of tumor multiplicity", "setting": "lung cancer", "result": 27, "unit": "%"}, {"measurement": "reduction of tumor volume", "setting": "lung cancer", "result": 45, "unit": "%"}, {"measurement": "Tmax", "setting": "[7]", "result": 1.3, "unit": "h"}, {"measurement": "bioavailability (in words)", "setting": "[8]", "result": "poor bioavailability"}, {"measurement": "inhibition of SARS-CoV-2 replication", "setting": "SARS-CoV-2 [9]; 25 µM, Vero E6 cells", "result": 3, "unit": "logs"}, {"measurement": "EC50", "setting": "SARS-CoV-2 [9]; [13]", "result": 10.7, "unit": "µM"}, {"measurement": "EC90", "setting": "SARS-CoV-2 [9]; [13]", "result": 11.4, "unit": "µM"}]}, {"smiles": "Cc1cccc(C)c1OCC(=O)N[C@@H](Cc1ccccc1)[C@@H](O)C[C@H](Cc1ccccc1)NC(=O)[C@H](C(C)C)N1CCCNC1=O", "note": "[lopinavir]", "values": [{"measurement": "EC50", "setting": "HCoV-229E [2]; HCoV-229E in MRC5 cells, high titer MOI = 1, PFU assay after 48 h, read-out: EC50", "result": 0.0088, "unit": "mM"}, {"measurement": "EC50", "setting": "HCoV-229E [2]; Human coronavirus 229E, MRC5, 48 h, HCoV-229E in MRC5 cells, high titer MOI = 1, PFU assay after 48 h", "result": 0.00881, "unit": "mM"}]}, {"smiles": "CCN(CCO)CCCC(C)Nc1ccnc2cc(Cl)ccc12", "note": "(stereo not shown) [hydroxychloroquine]", "values": [{"measurement": "EC90", "setting": "SARS-CoV-2 [10]", "result": 5.47, "unit": "µM"}]}, {"smiles": "CCN(CC)CCCC(C)Nc1ccnc2cc(Cl)ccc12", "note": "(stereo not shown) [Chloroquine, chloroquine diphosphate]", "values": [{"measurement": "reduction of the viral titer", "setting": "HCoV-229E [2]; HCoV-229E", "result": 60, "unit": "%"}, {"measurement": "EC50", "setting": "HCoV-229E [2]; [12]", "result": 0.005, "unit": "mM"}, {"measurement": "HCoV-229E replication, low viral load (in words)", "setting": "HCoV-229E [2]; MOI = 0.01, Figure 2", "result": "inhibits HCoV-229E replication"}, {"measurement": "effect of combinatory treatment on HCoV-229E (in words)", "setting": "HCoV-229E [2]; combinations of lopinavir/ritonavir, chloroquine, resveratrol, MOI 0.01, Figure 2B", "result": "did not observe a synergistic effect"}, {"measurement": "effect when cells were treated before or after the infection (in words)", "setting": "HCoV-229E [2]; pre-treated 3 h or post-treated 4 h, MOI 1, Figure 3", "result": "did not observe a significant difference"}, {"measurement": "cytotoxicity on Vero E6 cells (in words)", "setting": "Vero E6 cells; 48 h", "result": "toxic; also recorded: high cytotoxicity"}, {"measurement": "EC50", "setting": "HCoV-229E [11]", "result": 3.3, "unit": "µM"}]}]}
